# From patent publication US8436012B2, “Imidazopyridin-2-one derivatives” (Daiichi Sankyo Company, Limited, priority 2008, dated 2013)
# Legend:
# human mTOR = biological target: T1, human mTOR (Homo sapiens, UniProt P42345); experiment: mTOR Kinase Activity Inhibition Test; type: biochemical; conditions: His-tagged mTOR (1362C), biotinylated peptide substrate, ATP, 3 hours at room temperature, fluorescence resonance energy transfer 665 nm/620 nm; read-out: IC50 value of mTOR enzyme inhibitory activity
# T1 construct: the portion corresponding to 1362-2549aa at the C terminus of human mTOR; made in house
# How it was run: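 Purified His-tagged human mTOR (1362–2549aa, from HEK293) was used with biotinylated peptide (8 μg/mL in enzyme solution) in HEPES pH 7.5 with 20 mM MnCl2. Compounds were diluted in 20 μM ATP solution, and the reaction ran 3 h at RT. Phospho-S6K(Thr389) HTRF was read as the 665/620 nm ratio, and IC50 came from % inhibition versus controls.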
# WM-266-4 cells = experiment: Cell Proliferation Inhibitory Test; type: cell-based; conditions: Homo sapiens, 72 h, cultured three days with test compound, MTT, read-out: 50% cell proliferation inhibitory activity (GI50 value)
# How it was run: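 Cells cultured overnight, then exposed to serially diluted compound for three days; cell amount read by MTT. GI50 solved from 100×[(T−T0)/(C−T0)]=50, with T0 the value at time of compound addition and C the untreated three-day control.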
# T1 sequence (P42345 1362-2549): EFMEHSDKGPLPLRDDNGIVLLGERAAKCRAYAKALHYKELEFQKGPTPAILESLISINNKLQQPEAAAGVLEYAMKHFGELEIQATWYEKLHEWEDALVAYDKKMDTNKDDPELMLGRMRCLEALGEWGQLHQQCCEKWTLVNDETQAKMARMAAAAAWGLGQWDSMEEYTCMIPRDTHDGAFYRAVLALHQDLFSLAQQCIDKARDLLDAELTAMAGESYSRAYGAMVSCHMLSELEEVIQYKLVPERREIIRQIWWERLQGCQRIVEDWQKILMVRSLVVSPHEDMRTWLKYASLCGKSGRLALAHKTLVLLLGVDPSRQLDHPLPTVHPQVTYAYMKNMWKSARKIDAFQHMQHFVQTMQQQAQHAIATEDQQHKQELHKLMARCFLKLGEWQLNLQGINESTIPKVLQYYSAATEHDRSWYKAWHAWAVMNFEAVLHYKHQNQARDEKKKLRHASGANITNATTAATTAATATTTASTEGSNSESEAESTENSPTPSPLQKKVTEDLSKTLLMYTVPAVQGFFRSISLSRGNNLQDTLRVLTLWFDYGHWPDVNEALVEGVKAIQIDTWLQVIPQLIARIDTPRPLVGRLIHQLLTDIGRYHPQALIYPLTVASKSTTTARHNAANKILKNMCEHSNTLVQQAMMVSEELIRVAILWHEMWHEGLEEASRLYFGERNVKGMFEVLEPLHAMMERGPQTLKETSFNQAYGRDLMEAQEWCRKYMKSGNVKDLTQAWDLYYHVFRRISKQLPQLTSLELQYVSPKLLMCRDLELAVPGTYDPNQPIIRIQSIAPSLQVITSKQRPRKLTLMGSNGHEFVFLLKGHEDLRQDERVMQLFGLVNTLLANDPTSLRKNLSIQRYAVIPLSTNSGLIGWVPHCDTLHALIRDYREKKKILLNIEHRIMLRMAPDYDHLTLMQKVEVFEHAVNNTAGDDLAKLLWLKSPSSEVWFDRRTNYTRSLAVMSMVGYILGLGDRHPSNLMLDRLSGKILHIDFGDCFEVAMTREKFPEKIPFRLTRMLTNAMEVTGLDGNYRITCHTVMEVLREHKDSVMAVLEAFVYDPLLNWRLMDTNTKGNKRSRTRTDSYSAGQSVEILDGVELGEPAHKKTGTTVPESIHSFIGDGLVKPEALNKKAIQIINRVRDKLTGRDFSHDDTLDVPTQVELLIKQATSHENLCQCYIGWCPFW
IC50 (human mTOR) [µM],SMILES,GI50 (WM-266-4 cells) [µM]
< 0.05,"Cc1nc2[nH]c(=O)n(C[C@H]3COCCO3)c2cc1-c1cnc2[nH]cc(C)c2c1 [Example 47, 1-[(2S)-1,4-Dioxan-2-ylmethyl]-5-methyl-6-(3-methyl-1H-pyrrolo[2,3-b]pyridin-5-yl)-1,3-dihydro-imidazo[4,5-b]pyridin-2-one]",< 3
< 0.05,"O=c1[nH]c2ncc(-c3cnc4[nH]ccc4c3)cc2n1CCC1=CCOCC1 [Example 48, 1-[2-(3,6-Dihydro-2H-pyran-4-yl)ethyl]-6-(1H-pyrrolo[2,3-b]pyridin-5-yl)-1,3-dihydro-2H-imidazo[4,5-b]pyridin-2-one]",< 3
< 0.05,"O=c1[nH]c2ncc(-c3ccc4[nH]ccc4c3)cc2n1CCC1=CCOCC1 [Example 49, 1-[2-(3,6-Dihydro-2H-pyran-4-yl)ethyl]-6-(1H-indol-5-yl)-1,3-dihydro-2H-imidazo[4,5-b]pyridin-2-one]",< 3
< 0.05,"CC(Cn1c(=O)[nH]c2ncc(-c3cnc4[nH]ccc4c3)cc21)C1CCOCC1 (stereo not drawn) [Example 50, 6-(1H-Pyrrolo[2,3-b]pyridin-5-yl)-1-[2-(tetrahydro-2H-pyran-4-yl)propyl]-1,3-dihydro-2H-imidazo[4,5-b]pyridin-2-one]",< 3
< 0.05,"O=c1[nH]c2ncc(-c3cnc4[nH]ccc4c3)cc2n1CC(F)C1CCOCC1 (stereo not drawn) [Example 51, 1-[2-Fluoro-2-(tetrahydro-2H-pyran-4-yl)ethyl]-6-(1H-pyrrolo[2,3-b]pyridin-5-yl)-1,3-dihydro-2H-imidazo[4,5-b]pyridin-2-one]",< 3
< 0.05,"C[C@@H]1CN(CCn2c(=O)[nH]c3ncc(-c4ccc5[nH]ccc5c4)cc32)C[C@H](C)O1 [Example 52, 1-{2-[cis-2,6-Dimethylmorpholin-4-yl]ethyl}-6-(1H-indol-5-yl)-1,3-dihydro-2H-imidazo[4,5-b]pyridin-2-one]",< 3
< 0.05,"C[C@@H]1CN(CCn2c(=O)[nH]c3ncc(-c4cnc5[nH]ccc5c4)cc32)C[C@H](C)O1 [Example 53, 1-{2-[cis-2,6-Dimethylmorpholin-4-yl]ethyl}-6-(1H-pyrrolo[2,3-b]pyridin-5-yl)-1,3-dihydro-2H-imidazo[4,5-b]pyridin-2-one]",< 3
< 0.05,"C[C@H]1COCCN1CCn1c(=O)[nH]c2ncc(-c3cnc4[nH]ccc4c3)cc21 [Example 54, 1-{2-[(35)-3-Methylmorpholin-4-yl]ethyl}-6-(1H-pyrrolo[2,3-b]pyridin-5-yl)-1,3-dihydro-2H-imidazo[4,5-b]pyridin-2-one]",< 3
< 0.05,"O=c1[nH]c2ncc(-c3cnc4[nH]ccc4c3)cc2n1CCN1CCOCC1 [Example 55, 1-(2-Morpholin-4-ylethyl)-6-(1H-pyrrolo[2,3-b]pyridin-5-yl)-1,3-dihydro-2H-imidazo[4,5-b]pyridin-2-one]",< 3
0.1 to 5,"CN1CCC(Cn2c(=O)[nH]c3ncc(-c4cnc5[nH]ccc5c4)cc32)CC1 [Example 56, 1-[(1-Methylpiperidin-4-yl)methyl]-6-(1H-pyrrolo[2,3-b]pyridin-5-yl)-1,3-dihydro-2H-imidazo[4,5-b]pyridin-2-one]",3 to 25
0.05 to 0.1,"O=c1[nH]c2ncc(-c3cnc4[nH]ccc4c3)cc2n1CCN1CCNCC1 [Example 57, 1-[2-piperazin-1-ylethyl]-6-(1H-pyrrolo[2,3-b]pyridin-5-yl)-1,3-dihydro-2H-imidazo[4,5-b]pyridin-2-one]",3 to 25
< 0.05,"CN1CCN(CCn2c(=O)[nH]c3ncc(-c4cnc5[nH]ccc5c4)cc32)CC1 [Example 58, 1-[2-(4-Methylpiperazin-1-yl)ethyl]-6-(1H-pyrrolo[2,3-b]pyridin-5-yl)-1,3-dihydro-2H-imidazo[4,5-b]pyridin-2-one]",< 3
